The IC50 is the point on the concentration scale where inhibition reaches its midpoint.

The target of the assay is T1, human ACC2 (Homo sapiens, UniProt O00763).
T1 construct: made in house; host or cells: insect cells (baculoviral expression system)
T1 sequence (O00763 129-2458 limits assumed): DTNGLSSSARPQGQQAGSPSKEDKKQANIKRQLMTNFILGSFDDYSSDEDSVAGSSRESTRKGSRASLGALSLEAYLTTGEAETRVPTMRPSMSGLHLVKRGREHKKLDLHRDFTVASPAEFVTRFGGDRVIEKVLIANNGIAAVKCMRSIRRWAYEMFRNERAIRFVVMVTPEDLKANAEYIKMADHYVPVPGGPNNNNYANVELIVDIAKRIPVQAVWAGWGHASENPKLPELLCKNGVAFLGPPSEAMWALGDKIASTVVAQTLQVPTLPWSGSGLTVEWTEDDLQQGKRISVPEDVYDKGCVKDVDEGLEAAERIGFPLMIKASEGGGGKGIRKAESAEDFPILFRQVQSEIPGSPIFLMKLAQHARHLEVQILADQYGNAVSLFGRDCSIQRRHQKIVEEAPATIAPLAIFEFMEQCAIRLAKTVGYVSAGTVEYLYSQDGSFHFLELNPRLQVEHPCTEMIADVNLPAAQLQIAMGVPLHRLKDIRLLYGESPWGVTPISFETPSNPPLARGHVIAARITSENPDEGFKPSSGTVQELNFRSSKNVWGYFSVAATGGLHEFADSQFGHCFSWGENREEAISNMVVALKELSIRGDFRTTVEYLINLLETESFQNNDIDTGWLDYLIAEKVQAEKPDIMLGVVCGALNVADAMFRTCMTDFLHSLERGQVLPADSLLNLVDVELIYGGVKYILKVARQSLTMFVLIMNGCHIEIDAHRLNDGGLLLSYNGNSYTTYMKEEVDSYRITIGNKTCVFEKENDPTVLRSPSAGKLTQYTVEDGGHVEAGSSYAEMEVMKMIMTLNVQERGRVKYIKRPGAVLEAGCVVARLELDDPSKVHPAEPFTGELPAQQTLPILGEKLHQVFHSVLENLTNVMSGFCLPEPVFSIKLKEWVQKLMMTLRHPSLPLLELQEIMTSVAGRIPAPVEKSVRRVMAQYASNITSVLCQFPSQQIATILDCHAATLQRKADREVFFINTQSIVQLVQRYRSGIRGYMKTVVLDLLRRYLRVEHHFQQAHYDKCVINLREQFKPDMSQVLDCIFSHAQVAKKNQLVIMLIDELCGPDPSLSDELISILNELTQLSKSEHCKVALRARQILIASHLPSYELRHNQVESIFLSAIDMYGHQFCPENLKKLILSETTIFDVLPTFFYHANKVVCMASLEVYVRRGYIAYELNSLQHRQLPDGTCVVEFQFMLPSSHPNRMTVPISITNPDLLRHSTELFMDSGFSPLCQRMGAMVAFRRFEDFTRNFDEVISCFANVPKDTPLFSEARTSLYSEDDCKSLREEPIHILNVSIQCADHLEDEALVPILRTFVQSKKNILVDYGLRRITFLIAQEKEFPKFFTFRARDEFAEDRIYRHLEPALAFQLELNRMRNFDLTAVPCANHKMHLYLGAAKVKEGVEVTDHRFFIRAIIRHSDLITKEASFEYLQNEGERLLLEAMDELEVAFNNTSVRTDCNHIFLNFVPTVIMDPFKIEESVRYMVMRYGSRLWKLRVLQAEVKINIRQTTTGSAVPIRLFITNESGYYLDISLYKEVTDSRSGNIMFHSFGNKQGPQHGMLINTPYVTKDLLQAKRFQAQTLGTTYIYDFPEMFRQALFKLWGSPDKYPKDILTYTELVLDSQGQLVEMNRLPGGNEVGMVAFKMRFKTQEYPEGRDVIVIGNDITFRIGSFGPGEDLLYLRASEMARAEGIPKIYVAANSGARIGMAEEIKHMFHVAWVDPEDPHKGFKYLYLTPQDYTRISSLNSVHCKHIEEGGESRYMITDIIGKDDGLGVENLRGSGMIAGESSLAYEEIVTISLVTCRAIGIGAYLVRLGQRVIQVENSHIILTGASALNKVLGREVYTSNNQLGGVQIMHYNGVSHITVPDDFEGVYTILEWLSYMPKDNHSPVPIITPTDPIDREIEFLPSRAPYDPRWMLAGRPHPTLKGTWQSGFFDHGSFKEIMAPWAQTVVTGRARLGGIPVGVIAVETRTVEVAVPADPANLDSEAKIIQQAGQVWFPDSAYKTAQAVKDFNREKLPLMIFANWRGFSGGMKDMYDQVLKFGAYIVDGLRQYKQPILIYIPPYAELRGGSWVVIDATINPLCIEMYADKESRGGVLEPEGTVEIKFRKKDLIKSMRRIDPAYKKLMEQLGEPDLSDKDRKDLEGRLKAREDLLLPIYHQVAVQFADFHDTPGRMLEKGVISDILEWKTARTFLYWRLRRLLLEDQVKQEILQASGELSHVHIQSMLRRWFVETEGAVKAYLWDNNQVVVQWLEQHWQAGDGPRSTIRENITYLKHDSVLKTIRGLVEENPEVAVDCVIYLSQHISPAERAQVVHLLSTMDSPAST
Put plainly: ACC2 assay, spectrophotometric 384 well assay (NADH-linked, coupled lactate dehydrogenase/pyruvate kinase). The format is biochemical. The note with it: ACC2 assay, hACC2 construct lacking 128 N-terminal amino acids, 25° C., 340 nm; read-out: IC50. As for the experimental part:
Spectrophotometric 384 Well Assay
Malonyl CoA formation by acetyl CoA carboxylases is stoichometrically linked to the consumption of ATP. ACC2 activity is measured in a NADH-linked kinetic method measuring ADP generated during the ACC reaction using a coupled lactate dehydrogenase/pyruvate kinase reaction.
For biological testing, a human ACC2 construct which lacks the 128 amino acids at the N-terminus for increased solubility (nt 385-6966 in Genbank entry AJ575592) is cloned. The protein is then expressed in insect cells using a baculoviral expression system. Protein purification is performed by anion exchange.
All compounds are dissolved in dimethyl sulfoxide (DMSO) to a concentration of 10 mM.
Assay reactions are then carried out in 384-well plates, with hACC2 in an appropriate dilution and at final assay concentrations (f.c.) of 100 mM Tris (pH 7.5), 10 mM trisodium citrate, 25 mM KHCO3, 10 mM MgCl2, 0.5 mg/mL BSA, 3.75 mM reduced L-glutathione, 15 U/mL lactate dehydrogenase, 0.5 mM phosphoenolpyruvate, 15 U/mL pyruvate kinase, compounds at different concentrations at final DMSO concentrations of 1%.
The enzymatic reaction is then started by addition of a mixture of NADH, acetyl Coenzyme A (both 200 μM f.c.) and ATP (500 uM f.c.). The decrease of the optical density (slope S) is then determined at 25° C. at a wavelength of 340 nm over 15 minutes in a spectrophotometric reader.
Each assay microtiter plate contains wells with vehicle instead of compound as controls for the non-inhibited enzyme (100% CTL; ‘HIGH’) and wells without acetyl-CoA as controls for non-specific NADH degradation (0% CTL; ‘LOW’).
The slope S is used for calculation of % CTL=(S(compound)−S('LOW'))/(S('HIGH')−S('LOW'))*100. Compounds will give values between 100% CTL (no inhibition) and 0% CTL (complete inhibition).
For IC50 value determination, the sample slope in the presence of the test compound after subtraction of the low controls (S(compound)−S('LOW')) are used.
An IC50 value is derived from the compound slopes at different dosages after subtraction of the low controls (S(compound)−S('LOW')) by non-linear regression curve fitting (equation y=(A+((B−A)/(1+((C/x)^D))))).
On to `CCC(C)Oc1ccc(N2CCC(c3ccc([C@H](C)NC(=O)OC)cc3)CC2)cc1` (stereo partly shown) [Example 1.15], for which the IC50 stood at 240 nM.

On to `C[C@H](NC(=O)C1CC1)c1ccc(C2CCN(c3ccc(OCC4CC4(F)F)cc3)CC2)cc1` (stereo partly shown) [Example 1.139], for which the IC50 turned out to be 70 nM.

For `COc1cccc(COc2cc(N3CCC(c4ccc([C@H](C)NC(C)=O)cc4)CC3)ccn2)c1` [Example 19.8], the IC50 is 1500 nM.

As for `CC(=O)N[C@@H](C)c1ccc(C2CCN(c3ncc(C(=O)NCCS(C)(=O)=O)cn3)CC2)cc1` [Example 18.64], the IC50 is 25400 nM.

In the case of `CC(=O)N[C@@H](C)c1ccc(C2CCN(c3ncc(-c4cccc(C#N)c4)cn3)CC2)cc1` [Example 10.80], the IC50 came to 140 nM.

Turning to `CC(=O)N[C@@H](C)c1ccc(C2CCN(c3ncc(C(=O)NCCN4CCCCC4)cn3)CC2)cc1` [Example 18.59], the IC50 came out at 18500 nM.

With `COC(=O)N[C@@H](C)c1ccc(C2CCN(c3ccc(OCC(C)C)cn3)CC2)cc1` [Example 1.134], the IC50 stood at 280 nM.

As to `CCCC(C)Oc1ccc(N2CCC(c3ccc([C@H](C)NC(C)=O)cc3)CC2)cc1` (stereo partly shown) [Example 9.19], the IC50 came to 140 nM.

Regarding `CNc1nc(N2CCC(c3ccc([C@H](C)NC(C)=O)cc3)CC2)ncc1-c1ccccc1` [Example 21.3, (S)—N-(1-{4-[1-(4-Methylamino-5-phenyl-pyrimidin-2-yl)-piperidin-4-yl]-phenyl}-ethyl)-acetamide], the IC50 came to 320 nM.

As for `CCOc1ncc(N2CCC(c3ccc([C@H](C)NC(C)=O)cc3)CC2)cn1` [Example 16.1, (S)—N-(1-M{4-[1-(2-Ethoxy-pyrimidin-5-yl)-piperidin-4-yl]-phenyl}-ethyl)-acetamide], the IC50 is 1400 nM.

Turning to `CC(=O)N[C@@H](C)c1ccc(C2CCN(c3ccnc(C(C)C)n3)CC2)cc1` [Example 4.25], the IC50 was found to be 230 nM.

`CCCOc1cnc(N2CCC(c3ccc([C@H](C)NC(C)=O)cc3)CC2)nc1` [Example 4.49]: the IC50 stood at 210 nM.

With `COCCOc1cccc(N2CCC(c3ccc([C@H](C)NC(C)=O)cc3)CC2)c1` [Example 9.7], the IC50 came to 560 nM.

`CC(=O)N[C@@H](C)c1ccc(C2CCN(c3ncc(C(=O)NC4CCNCC4)cn3)CC2)cc1` [Example 18.79]: the IC50 came to 16700 nM.

Consider `CC(=O)N[C@@H](C)c1ccc(C2CCN(c3ncc(-c4cnc5ccccc5c4)cn3)CC2)cc1` [Example 10.21], for which the IC50 came to 70 nM.

As to `CC(=O)NC(C)Cc1ccc(C2CCN(c3ccc(OCC(C)C)cc3)CC2)cc1` (stereo not shown) [Example 2.7], the half-inhibitory concentration (IC50) was determined as 1600 nM.

Turning to `COc1ccc2cc(-c3cnc(N4CCC(c5ccc([C@H](C)NC(C)=O)cc5)CC4)nc3)ccc2c1` [Example 10.40], the IC50 came out at 6900 nM.

Turning to `C[C@H](NC(=O)N(C)C)c1ccc(C2CCN(c3ncc4nc(-c5ccccc5)oc4n3)CC2)cc1` [Example 4.47], the IC50 worked out at 80 nM.

In the case of `COCCOc1ccc(N2CCC(c3ccc([C@H](C)NC(C)=O)cc3)CC2)c(F)c1` [Example 1.97], the IC50 stood at 530 nM.

Take `CC(=O)N[C@@H](C)c1ccc(C2CCN(c3ncc(-c4ccc5[nH]ccc5c4)cn3)CC2)cc1` [Example 10.46]: the IC50 came to 140 nM.

On to `CCOc1ccc(-c2ccnc(N3CCC(c4ccc([C@H](C)NC(C)=O)cc4)CC3)n2)cc1` [Example 22.12], for which the IC50 amounted to 3300 nM.

On to `CC(=O)N[C@@H](C)c1ccc(C2CCN(c3ncc(Br)cc3F)CC2)cc1` [Example 5.38], for which the IC50 worked out at 570 nM.

On to `CCNC(=O)N[C@@H](C)c1ccc(C2CCN(c3ccc(OCC)cc3)CC2)cc1` [Example 14.2], for which the IC50 worked out at 2700 nM.

Consider `CC(=O)N[C@@H](C)c1ccc(C2CCN(c3ccnc(OCc4ccccc4F)c3)CC2)cc1` [Example 19.31], for which the IC50 came out at 750 nM.

Regarding `CCOc1ccc(N2CCC(c3ccc([C@H](C)NC(=O)NCc4cncnc4)cc3)CC2)cc1` [Example 14.62], the IC50 was found to be 13300 nM.

In the case of `CCCOc1cnc(N2CCC(c3ccc([C@H](C)NC(C)=O)cc3)CC2)c(F)c1` [Example 1.105], the IC50 worked out at 240 nM.

Consider `CCNc1ccc(N2CCC(c3ccc([C@H](C)NC(C)=O)cc3)CC2)cc1` [Example 24.2], for which the IC50 was 1900 nM.

For the compound `CCOc1ccc(N2CCC(c3ccc([C@H](C)NC(=O)CCC#N)cc3)CC2)cc1` [Example 6.39], the IC50 stood at 1300 nM.

With `CC(=O)N[C@@H](C)c1ccc(C2CCN(c3cc(N[C@H](C)C(C)C)ncn3)CC2)cc1` [Example 11.76], the IC50 came out at 6000 nM.

In the case of `COCCN(C)C(=O)c1cnc(N2CCC(c3ccc([C@H](C)NC(C)=O)cc3)CC2)nc1` [Example 18.25], the half-inhibitory concentration (IC50) worked out at 7100 nM.

`CC(=O)N[C@@H](C)c1ccc(C2CCN(c3cc4c(cc3C#N)OCO4)CC2)cc1` [Example 1.73]: the 50% inhibitory concentration (IC50) amounted to 3400 nM.

In the case of `CC(=O)N[C@@H](C)c1ccc(C2CCN(c3ncc(-c4ccc(OC(C)C)cc4)cn3)CC2)cc1` [Example 10.27], the IC50 is 970 nM.

Take `COc1cncc(N2CCC(c3ccc([C@H](C)NC(C)=O)cc3)CC2)c1` [Example 15.9]: the IC50 was determined as 19900 nM.

In the case of `CC(=O)N[C@@H](C)c1ccc(C2CCN(c3cc(OCc4cccnc4)ncn3)CC2)cc1` [Example 11.33], the IC50 stood at 590 nM.

As for `CC(=O)N[C@@H](C)c1ccc(C2CCN(c3ncc(-c4cncc(F)c4)cn3)CC2)cc1` [Example 10.69], the IC50 turned out to be 270 nM.

With `CC(=O)N[C@@H](C)c1ccc(C2CCN(c3cnn(Cc4ccccc4)c3)CC2)cc1` [Example 2.13], the IC50 was 1900 nM.

On to `CCCOc1ccc(N2CCC(c3ccc([C@H](C)NC(C)=O)cc3)CC2)c(F)c1` [Example 1.64], for which the half-maximal inhibitory concentration (IC50) was 70 nM.

Turning to `CCCOc1ccc(N2CCC(c3ccc([C@H](C)NC(C)=O)cc3)CC2)cc1Cl` [Example 8.34], the IC50 amounted to 260 nM.

On to `C[C@H](NC(=O)C1CC1)c1ccc(C2CCN(c3nc(Cl)ncc3F)CC2)cc1` [Example 5.36], for which the IC50 amounted to 3100 nM.

With `CC(=O)N[C@@H](C)c1ccc(C2CCN(c3ncc(-c4ccccc4C#N)cn3)CC2)cc1` [Example 10.55], the IC50 is 640 nM.

With `CCOc1ccc(N2CCC(c3ccc([C@H](C)NC(=O)CC4CC4)cc3)CC2)cc1` [Example 6.13], the IC50 turned out to be 1100 nM.

Regarding `CC(=O)N[C@@H](C)c1ccc(C2CCN(c3ncc(C(=O)N(C)Cc4cccnc4)cn3)CC2)cc1` [Example 18.31], the IC50 was 9300 nM.

For the compound `CCOc1ccc(N2CCC(c3ccc([C@H](C)NC(=O)c4cscn4)cc3)CC2)cc1` [Example 6.46], the IC50 was found to be 10400 nM.

As to `CCOc1ccc(N2CCC(c3ccc([C@H](C)NC(=O)N4CCC4)cc3)CC2)cc1` [Example 14.66], the IC50 stood at 2200 nM.

On to `CC(=O)N[C@@H](C)c1ccc(C2CCN(c3ccnc(N4CC5CCCC5C4)n3)CC2)cc1` (stereo partly shown) [Example 11.78], for which the IC50 was found to be 610 nM.

Consider `CCCOc1ccc(N2CCC(c3ccc([C@H](C)NC(C)=O)cc3)CC2)cc1` [Example 3.8], for which the IC50 worked out at 340 nM.

For `CC(=O)N[C@@H](C)c1ccc(C2CCN(c3ncc(C(=O)N4CC5CCCC5C4)cn3)CC2)cc1` (stereo partly shown) [Example 18.20], the IC50 stood at 530 nM.

With `CC(=O)N[C@@H](C)c1ccc(C2CCN(c3ccnc(C)n3)CC2)cc1` [Example 5.26], the IC50 was 9000 nM.

As for `CCCc1cnc(N2CCC(c3ccc([C@H](C)NC(C)=O)cc3)CC2)nc1` [Example 4.35], the IC50 was determined as 510 nM.

Values taken from patent US9006450B2 (Boehringer Ingelheim International GmbH, priority 2010, dated 2015).
